Measured values taken from paper PMC4721142, “Randomized controlled studies on the efficacy of antiarthritic agents in inhibiting cartilage degeneration and pain associated with progression of osteoarthritis in the rat” (Arthritis Research & Therapy, 2016).
Like-named read-outs stand apart in the source and are kept apart here.

What was measured:
[1] = test system: Normal human articular chondrocytes; experiment: Cytotoxicity to chondrogenic pellets (CellTiter-Blue)
Experimental: Differentiated chondrogenic pellets were used both to test the ability of drugs to block MMP-13 activity and to test for drug toxicity. […] Supernatants were collected and analyzed for MMP-13 using an enzyme-linked immunosorbent assay (GE Healthcare Life Sciences, Little Chalfont, UK). Cytotoxicity to pellets was assessed using CellTiter-Blue (Promega).

[2] = Comparison of in vitro screens: overlapping effective and nontoxic range; conditions: for Overlapping effective and nontoxic range: inhibits with minimal or no toxicity to synovium or cartilage, overlapping range if effective in more than one assay;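 as to all read-outs here: compares non-toxic ranges in synovial cells and chondrocytes with effective ranges against NFkB, MMP-13 and osteoclasts, giving their overlap as the predicted efficacy range in uM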
RAW 264.7 cells = experiment: RANKL-mediated osteoclastogenesis / matrix resorption (Osteologic) assay; format: cell-based, murine; conditions: for minimal effective concentration: Mus musculus, RAW264.7, 168 h, read-out: Lowest inhibitory concentration, matrix resorption
Experimental: RAW 264.7 cells (American Type Culture Collection [ATCC], Manassas, VA, USA), a murine monocytic cell line that differentiates in the presence of RANKL, was used for measurements of osteoclastogenesis and osteoclast activity. Cells were amplified on nonadherent culture substratum in high-glucose Dulbecco’s modified Eagle’s medium (DMEM) containing 10 % fetal bovine serum (FBS) and penicillin-streptomycin in a 37 °C, 5 % CO2, humidified incubator and were passaged by manual dissociation. […] Plates were subsequently rinsed, bleached, dried, and analyzed for matrix degradation using a Nikon COOLSCOPE (Nikon Instruments, Melville, NY, USA). Matrix resorption was quantified using EclipseNet (Nikon Instruments)/Visiopharm (Visiopharm, Hørsholm, Denmark) software (see Additional file 1).
In Vitro Osteoclastogenesis
Osteoclastogenic activity was measured using BD osteologic plates and quantitation of the degree of bone matrix digestion on the plate surface. Images from the BD Osteologic assay used to […]
left pane depicts an example of a control well after removal of cells from matrix. Pseudocoloring of matrix (blue) and pits (green) is shown in the far right pane. A transparent overlay of the two images is shown in the center.
Figure 5 - Measurement of drug effects on osteoclastogenesis and osteoclast activity.
Comparisons were made between RANKL treated control wells and wells treated with both RANKL and […]
Agents were initially tested either during differentiation or post differentiation in the bone assay […]
(e.g., Figure 2, Sulfazalazine). […]
indicated (*/**: p < 0.05/0.01, unpaired t-test versus RANKL control). […]

MMP-13 = MMP-13 ELISA on supernatants of TNF-α-treated chondrogenic pellets; format: cell-based, human; conditions: for Concentration inhibiting MMP-13: > = failed to inhibit up to highest concentration tested
NF-κB = experiment: TNF-α-stimulated NF-κB dual luciferase reporter assay in HeLa cells; format: cell-based
Experimental: NF-κB activity was assessed using a previously described dual plasmid reporter system. HeLa cells were transfected with NF-κB luciferase (Stratagene Products Division, Agilent Technologies, La Jolla, CA, USA) and pRLuc-N3 (PerkinElmer, Waltham, MA, USA) at an 8:1 ratio, respectively, in triplicate. […] NF-κB activity was measured 5 h later with a Dual-Glo Luciferase Assay (Promega, Madison, WI, USA) and an Omni plate reader (BMG Labtech, Cary, NC, USA). The ratio of firefly luciferase luminescence (NF-κB reporter) to Renilla luciferase luminescence (control) was normalized for the number of viable transfected cells. Data are reported as a ratio of activity of viable treated cells over the activity of cells not exposed to TNF-α or drug (fold stimulation above basal untreated levels of activity). The viability of HeLa cells with and without drug was also measured using a CellTiter-Glo luminescent viability assay (Promega). […]
NF-κB activity was assessed in HeLa cells that were transiently transfected with two reporter constructs as described in the manuscript. Agents were tested for their ability to block TNF- […]
Expression of the luciferase from the Renilla construct was used as a measure of viability, which was confirmed with a cytotoxicity assay (see later section).

SW982 = experiment: Synovial toxicity (CellTiter-Glo), with or without TNF-α
Experimental: Viability was measured with the CellTiter-Glo luminescent viability assay (Promega). […] To more accurately predict the effects of the drugs on osteoarthritic synovium, cells were tested with or without TNF-α (20 ng/ml; BioSource).
In Vitro Toxicity Testing with a Synovial Cell Line
Compounds were tested for synovial toxicity using SW982 cells alone or in the presence of TNF as

HeLa cells = experiment: HeLa cell viability (CellTiter-Glo)
Experimental: NF-κB activity was assessed using a previously described dual plasmid reporter system. HeLa cells were transfected with NF-κB luciferase (Stratagene Products Division, Agilent Technologies, La Jolla, CA, USA) and pRLuc-N3 (PerkinElmer, Waltham, MA, USA) at an 8:1 ratio, respectively, in triplicate. […] NF-κB activity was measured 5 h later with a Dual-Glo Luciferase Assay (Promega, Madison, WI, USA) and an Omni plate reader (BMG Labtech, Cary, NC, USA). The ratio of firefly luciferase luminescence (NF-κB reporter) to Renilla luciferase luminescence (control) was normalized for the number of viable transfected cells. Data are reported as a ratio of activity of viable treated cells over the activity of cells not exposed to TNF-α or drug (fold stimulation above basal untreated levels of activity). The viability of HeLa cells with and without drug was also measured using a CellTiter-Glo luminescent viability assay (Promega).
In Vitro Hela Cell Drug Toxicity Testing
Potential drug toxicity was measured using a CTG assay and HeLa cells (Promega). Drugs not tested in
this assay were tested in either of the in vitro toxicity assays already presented (synovial or chondrocyte
Table 3- Drug toxicity measured using a CTG assay and HeLa cells.

[3] = published half-life; cited from earlier work

Row | Compound | Non-toxic range (Chondrocyte) [1] | Non-toxic & predicted range of efficacy [2] | Overlapping effective and nontoxic range [2] | Effective range against Osteoclasts (RAW 264.7 cells) | Non-toxic range (Synovial) (SW982) [µM] | t 1/2 [3] | also measured
1 | Nc1cc(-c2ccncc2)c[nH]c1=O [Amrinone] | 1.25 to 80 µM | ≥ 80 µM | 80 µM | Not effective | 1.25 to 40 |  | MMP-13, effective concentration (MMP-13; number printed in the class column): 80; Effective range against NFkB (NF-κB): None
2 | CC[C@@H]1/C=C(\C)C[C@H](C)C[C@H](OC)[C@H]2O[C@@](O)(C(=O)C(=O)N3CCCC[C@H]3C(=O)O[C@H](/C(C)=C/[C@@H]3CC[C@@H](O)[C@H](OC)C3)[C@H](C)[C@@H](O)CC1=O)[C@H](C)C[C@@H]2OC [Ascomycin] | 0.625 to 40 µM | 1.25 to 40 µM | 1.25 to 40 µM |  | 625000 to 4e+07 |  | minimal effective concentration (RAW 264.7 cells): 0.01 µM; Effective range against MMP-13 (MMP-13): Not effective; Concentration inhibiting MMP-13 (MMP-13): > 40 µM
3 | Cc1ccc(S(=O)(=O)/C=C/C#N)cc1 [BAY-117082, BAY-11-7082] | 0.18 to 1.5 µM | None | 6 to 192 µM | ≥ 3 µM | 3 to 6 |  | Non-toxic concentrations (HeLa cells): 6 to 96 µM; Effective range against MMP-13 (MMP-13): ≥ 0.75 µM; Effective against NF κβ (p<0.05) (NF-κB): 12 to 96 µM; Effective range against NFkB (NF-κB): 12 to 96 µM; Concentration with notable toxicity (SW982): 12 µM
4 | CC(=O)Oc1cccc2c1C(=O)c1c(OC(C)=O)cc(C(=O)O)cc1C2=O [Diacerein] | All toxic | None | Toxic to chondrocytes |  | 1.5 to 54.3 |  | Non-toxic concentrations (HeLa cells; (TNF), i.e. without TNF): 0 to 1.375e+07 µM; Non-toxic concentrations (HeLa cells; +TNF): 0 to 2.275e+07 µM; Toxic concentrations (p<0.05) (HeLa cells; with TNF): 50 to 110 M
5 | CNC(=O)[C@H](Cc1c[nH]c2ccccc12)NC(=O)[C@@H](CC(=O)NO)CC(C)C [GM6001] | 0.4 to 25 µM |  |  | Not effective | 0.33 to 25 |  | MMP-13, effective concentration (MMP-13): 25
6 | O=C(c1ccccc1)c1ccc2n1CCC2C(=O)O (centres unmarked) [Keterolac] | 3.17 to 200 µM | ≥ 12.5 µM |  | Not effective | 0.625 to 40 |  | 
7 | CC[C@@H]1/C=C(\C)C[C@H](C)C[C@H](OC)[C@H]2O[C@@](O)(C(=O)C(=O)N3CCCC[C@H]3C(=O)O[C@H](/C(C)=C/[C@@H]3CC[C@H](Cl)[C@H](OC)C3)[C@H](C)[C@@H](O)CC1=O)[C@H](C)C[C@@H]2OC [Pimecrolimus] | 0.625 to 40 µM | 2.5 to 40 µM | 2.5 to 20 µM |  | 0.625 to 40 | Ascomycin macrolactam derivative Like tacrolimus, a calcineurin inhibitor that inhibits release of inflammatory cytokines [97] t 1/2 = 30–100 h | minimal effective concentration (RAW 264.7 cells): 0.01 µM; Effective range against MMP-13 (MMP-13): Not effective; Concentration inhibiting MMP-13 (MMP-13): > 40 µM
8 | Oc1ccc(/C=C/c2cc(O)cc(O)c2)cc1 [Resveratrol] | 3.12 to 200 µM |  |  |  | 3.12 to 100 | Suppresses IL-1β signaling and IL-1β-stimulated apoptosis in osteoarthritis [98] A natural inhibitor of NF-κB [99] t 1/2 = 1–3 h | Lowest inhibitory concentration, matrix resorption (RAW 264.7 cells): 6.25 µM; Effective range against NFkB (NF-κB): Not effective
9 | O=C(O)c1cc(O)c2c(c1)C(=O)c1cccc(O)c1C2=O [Rhein] | 0.625 to 40 µM | 40 µM |  | Not effective | 625000 to 4e+07 | Anthraquinone-active metabolite of diacerein Reduces proliferation of chondrocytes and synoviocytes; inhibits NF-κB activation in vitro [101] t 1/2 = 4.3 h | Non-toxic concentrations (HeLa cells): 2.5 to 20 µM; Effective against NF κβ (p<0.05) (NF-κB): Only at toxic
10 | O=C(O)c1cc(/N=N/c2ccc(S(=O)(=O)Nc3ccccn3)cc2)ccc1O [Sulfasalazine] | 12.5 to 800 µM | 50 to 400 µM | 150 to 1600 µM |  | 12.5 to 400 | NSAID t 1/2 = 5 – 10 h | 
11 | CC1=C(CC(=O)O)c2cc(F)ccc2/C1=C\c1ccc([S+](C)[O-])cc1 (centres unmarked) [Sulindac] | 4.35 to 280 µM | 8.8 to 280 µM | 280 µM |  | 4.4 to 280 | NSAID t 1/2 = 7.8 h | Non-toxic concentrations (HeLa cells): 8.75 to 70 µM
12 | CC1(C)O[C@@H]2C[C@H]3[C@@H]4CCC5=CC(=O)C=C[C@]5(C)[C@@]4(F)[C@@H](O)C[C@]3(C)[C@]2(C(=O)CO)O1 [Triamcinolone acetonide] |  | 31.25 to 500 µM | 250 to 500 µM |  | 0.7 to 250 | Steroid t 1/2 = 88 min | Lowest inhibitory concentration, matrix resorption (RAW 264.7 cells): 250 µM
13 | COc1ccc(CCN(C)CCCC(C#N)(c2ccc(OC)c(OC)c2)C(C)C)cc1OC (centres unmarked) [Verapamil] |  |  |  | Not effective |  |  | 
14 | Epigallocatechin-3-gallate [EGCG] | 690000 to 4.4e+07 µM | 5.5 to 44 µM | 5.5 to 44 µM | None? | 690000 to 4.4e+07 |  | Effective range against MMP-13 (MMP-13): ≥ 5.5 µM; Effective range against NFkB (NF-κB): 5.5 to 88 µM
